Results reported in ChEMBL document CHEMBL1125524, “Adenosine A1 antagonists. 2. Structure-activity relationships on diuretic activities and protective effects against acute renal failure” (J Med Chem, 1992).

Assays:
[1] = tested on: Rattus norvegicus; experiment: Serum creatinine concentration measured after intraperitoneal administration of 1 mg/kg of compound to rats(vehicle 3.75+/-0.34); type: functional
[2] = tested on: Rattus norvegicus; experiment: Serum creatinine concentration measured after intraperitoneal administration of 10 mg/kg of compound to rats(vehicle 4.21+/-0.21); type: functional
[3] = tested on: Rattus norvegicus; experiment: Urea nitrogen concentration measured after intraperitoneal administration of 1 mg/kg of compound to rats(vehicle 137.4+/-16.5); type: functional
[4] = tested on: Rattus norvegicus; experiment: Oral diuretic activity was measured after oral administration of 25 mg/kg to rats(control volume is 0.74+/-0.07); type: functional, Urine
[5] = tested on: Rattus norvegicus; experiment: Percent inhibition of serum creatinine by the compound given as ratio of Cr value in treated to vehicle treated ones after intraperitoneal administration of 10 mg/kg of compound to rats(vehicle 4.21+/-0.21); type: functional; conditions: ip
[6] = tested on: Rattus norvegicus; experiment: Ratio of urinary excretion value (urinary volume) in treated rats to that in control rats, at a peroral dose of 25 mg/Kg; type: functional, Urine
[7] = tested on: Rattus norvegicus; experiment: Ratio of sodium ion/potassium ion concentration in treated rats to that in control rats, at a peroral dose of 25 mg/Kg; type: functional
[8] = tested on: Rattus norvegicus; experiment: Ratio of urinary excretion value (Na+ concentration) in treated rats to that in control rats, at a peroral dose of 25 mg/Kg; type: functional, Urine
[9] = tested on: Rattus norvegicus; experiment: Effect on urinary excretion potassium and sodium after oral administration of 25 mg/kg to rats(potassium and sodium excretion in control rat is 0.172+/-0.015); type: functional, Urine
[10] = tested on: Rattus norvegicus; experiment: Percent inhibition of serum creatinine by the compound given as ratio of Cr value in treated to vehicle treated ones after intraperitoneal administration of 1 mg/kg of compound to rats(vehicle 3.75+/-0.34); type: functional; conditions: ip
[11] = tested on: Rattus norvegicus; experiment: Urea nitrogen concentration measured after intraperitoneal administration of 10 mg/kg of compound to rats(vehicle 144.1+/-6.1); type: functional
[12] = tested on: Rattus norvegicus; experiment: Percent inhibition of Urea nitrogen by the compound given as ratio of UN value in treated to vehicle treated ones after intraperitoneal administration of 10 mg/kg of compound to rats(vehicle 144.1+/-6.1); type: functional; conditions: ip
[13] = tested on: Rattus norvegicus; experiment: Percent inhibition of Urea nitrogen by the compound given as ratio of UN value in treated to vehicle treated ones after intraperitoneal administration of 1 mg/kg of compound to rats(vehicle 137.4+/-16.5); type: functional; conditions: ip
[14] = molecular target: T1, Adenosine receptor A1 (Cavia porcellus, UniProt P47745)
T1 sequence (P47745 whole entry): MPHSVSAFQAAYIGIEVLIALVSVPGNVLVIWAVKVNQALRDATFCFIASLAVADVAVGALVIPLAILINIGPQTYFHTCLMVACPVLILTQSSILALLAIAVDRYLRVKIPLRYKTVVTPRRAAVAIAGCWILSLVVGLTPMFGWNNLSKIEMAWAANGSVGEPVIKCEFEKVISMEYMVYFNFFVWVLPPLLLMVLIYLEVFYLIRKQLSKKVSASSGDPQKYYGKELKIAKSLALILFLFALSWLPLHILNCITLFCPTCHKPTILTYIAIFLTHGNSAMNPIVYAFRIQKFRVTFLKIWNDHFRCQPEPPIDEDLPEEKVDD
Description: Binding affinity against adenosine A1 receptor in guinea pig forebrain membranes using N6-[3H]cyclohexyladenosine as radioligand

[15] = molecular target: Adenosine A2 receptor (Rattus norvegicus, UniProt P29276+P30543)
[16] = tested on: Rattus norvegicus; experiment: Serum creatinine concentration measured after intraperitoneal administration of 1 mg/kg of compound to rats(vehicle 4.19+/-0.2); type: functional
[17] = tested on: Rattus norvegicus; experiment: Serum creatinine concentration measured after intraperitoneal administration of 0.1 mg/kg of compound to rats(vehicle 2.9+/-0.28); type: functional
[18] = tested on: Rattus norvegicus; experiment: Effect on urinary excretion potassium and sodium after oral administration of 1.5 mg/kg to rats(potassium and sodium excretion in control rat is 0.165+/-0.008); type: functional, Urine
[19] = tested on: Rattus norvegicus; experiment: Oral diuretic activity was measured after oral administration of 25 mg/kg to rats(control volume is 0.74+/-0.05); type: functional, Urine
[20] = tested on: Rattus norvegicus; experiment: Ratio of urinary excretion value (urinary volume) in treated rats to that in control rats, at a peroral dose of 1.5 mg/Kg; type: functional, Urine
[21] = tested on: Rattus norvegicus; experiment: Urea nitrogen concentration measured after intraperitoneal administration of 1 mg/kg of compound to rats(vehicle 156.1+/-8.4); type: functional
[22] = tested on: Rattus norvegicus; experiment: Ratio of sodium ion/potassium ion concentration in treated rats to that in control rats, at a peroral dose of 1.5 mg/Kg; type: functional
[23] = tested on: Rattus norvegicus; experiment: Ratio of urinary excretion value (Na+ concentration) in treated rats to that in control rats, at a peroral dose of 1.5 mg/Kg; type: functional, Urine
[24] = tested on: Rattus norvegicus; experiment: Ratio of urinary excretion value (Na+ concentration) in treated rats to that in control rats, at a peroral dose of 6.25 mg/Kg; type: functional, Urine
[25] = tested on: Rattus norvegicus; experiment: Effect on urinary excretion potassium and sodium after oral administration of 25 mg/kg to rats(potassium and sodium excretion in control rat is […]+/-[…]); type: functional, Urine
[26] = tested on: Rattus norvegicus; experiment: Oral diuretic activity was measured after oral administration of 1.5 mg/kg to rats(control volume is 1.01+/-0.08); type: functional, Urine
[27] = tested on: Rattus norvegicus; experiment: Urea nitrogen concentration measured after intraperitoneal administration of 0.1 mg/kg of compound to rats(vehicle 93.4+/-10); type: functional
[28] = tested on: Rattus norvegicus; experiment: Ratio of urinary excretion value (urinary volume) in treated rats to that in control rats, at a peroral dose of 6.25 mg/Kg; type: functional, Urine

## CCCn1c(=O)c2c(nc(C3CCCC3)n2C)n(CCC)c1=O
[1]
  Cr: 2.62 mg/dL
[2]
  Cr: 3.07 mg/dL
[3]
  UN: 99.9 mg/dL
[4]
  Urine volume: 1.07 ml 6hr-1 100g-1
[5]
  inhibition in vivo at 10 mg/kg: 26%
[6]
  T/C: 1.45
[7]
  Na+/K+: 1
[8]
  T/C: 1.07
[9]
  Na: 0.184 m equiv 6hr-1 100g-1
[10]
  inhibition in vivo at 1 mg/kg: 30%
[11]
  UN: 107.9 mg/dL
[12]
  inhibition in vivo at 10 mg/kg: 25%
[13]
  inhibition in vivo at 1 mg/kg: 27%
[14]
  Ki: 3.9 µM
[15]
  Ki: > 10 µM

## CCCn1c(=O)[nH]c(=O)c2[nH]c(C(C3CC3)C3CC3)nc21
[16]
  Cr: 3 mg/dL
[17]
  Cr: 2.96 mg/dL
[18]
  Na: 0.202 m equiv 6hr-1 100g-1
[19]
  Urine volume: 1.85 ml 6hr-1 100g-1
[20]
  T/C: 1.12
[6]
  T/C: 2.5
[21]
  UN: 119.1 mg/dL
[22]
  Na+/K+: 1.13
[7]
  Na+/K+: 1.4
[23]
  T/C: 1.22
[8]
  T/C: 2.16
[24]
  T/C: 1.69
[25]
  Na: 0.328 m equiv 6hr-1 100g-1
[26]
  Urine volume: 1.13 ml 6hr-1 100g-1
[27]
  UN: 104.2 mg/dL
[28]
  T/C: 1.42
[15]
  Ki: > 100 µM
